Measurements from patent US20070160501A1, “Device and method for treating a crystal by applying microdrops thereto” (PROTEROS BIOSTRUCTURES GMBH, priority 2003, published 2007).

What was measured:
[1] = target: human α-thrombin (Homo sapiens, UniProt P00734); settings: stated in brackets without method; inhibitor used with human α-thrombin; cited from earlier work
[2] = cited from earlier work
[3] = target: Human a Thrombin (Homo sapiens, UniProt P00734); experiment: Binding of PMSF to a freely mounted thrombin crystal by dripping on microdrops, X-ray crystallographic examination; settings: 100 mM PMSF in isopropyl alcohol dripped on thrombin crystal; active center around Ser195; FIG. 4
From the text: A thrombin crystal was mounted on the free mounting system by means of a loop at a previously determined initial humidity of 93%. Under a microscope, surplus reservoir buffer was cautiously removed from the loop by means of a strip of filter paper. The stability and the consistency of the size of the crystal, respectively, were monitored by means of the video system.
Herein, a highly concentrated PMSF solution in an organic solvent was used.
Subsequently, the crystal was bombarded with individual drops (single shot mode) of the solution. The total volume dripped on approximately corresponded to the volume of the crystal, i.e. about 300 pl. […] Herein, the projection of the surface of the crystal was monitored after each dripping-on and it was waited until the surface remained uniform again before the next drop was applied. The individual parameters of the experiment can be seen in Table 1.
After completion of dripping-on, the crystal was moistened with PFPE oil (perfluoropolyether) and shock-frozen in liquid nitrogen. The X-ray crystallographic data record was recorded on a rotating copper anode. Data processing was conducted by means of the programs XDS and XSCALE, refinement and manual model construction was conducted by means of the programs CNX and O. The statistics of data collection, processing, and refinement are given in Table 2.

In the case of `Cl.NCCc1ccc(S(=O)(=O)F)cc1` [Pefabloc SC, 4-(2-aminoethyl)-benzenesulfonyl-fluoride-hydrochloride], the Ki [1] is given as 6.5 µM and the “stability in an aqueous system” value [2] is given as “high stability in an aqueous system”.

In the case of `O=S(=O)(F)Cc1ccccc1` [PMSF, Phenylmethylsulfonyl Fluoride], the “binding mode seen in the experimentally determined electron density” value [3] is reported as “covalent bond of the PMSF at Ser195”.
